From patent publication US20170166879A1, “NOVEL (R)-HYDROXYNITRILE LYASE” (PUBLIC UNIVERSITY CORPORATION TOYAMA PREFECTURAL UNIVERSITY, priority 2014, published 2017)
Like-named read-outs stand apart in the source and are kept apart here. Non-standard residues stand in square brackets, D forms with d. Residues, ends and D or L forms follow the SMILES beside them. *: point of attachment. Sta = CC(C)C[C@H](N)[C@@H](O)CC(=O)O; Isovaleryl = CC(C)CC(=O)*

What was measured:
[1] = target: T1, R-ChHNL (Chamberlinius hualienensis, UniProt A0A0H5BR52); test: Dynamic (kinetic) analysis, aldehyde substrates, Hanes-Woolf plot
[2] = target: T1, R-ChHNL; test: Search of inhibitor of R-ChHNL activity (remaining activity); type: biochemical
[3] = target: T1, R-ChHNL; test: Dynamic (kinetic) analysis, racemic mandelonitrile as substrate (decomposition reaction); type: biochemical
[4] = target: T1, R-ChHNL; test: Substrate identification by cyanohydrin synthetic reaction; type: biochemical; conditions: 50 mM carbonyl compound, 100 mM KCN, pH 4.2, 25° C., 5 minutes (aliphatic: 2 hours)
[5] = Decomposition reaction from racemic mandelonitrile to benzaldehyde, absorbance at 280 nm; type: biochemical, Chamberlinius hualienensis; conditions: purified enzyme; decomposition: 2 mM racemic mandelonitrile, pH 5.0-5.5, 22° C.
[6] = type: biochemical, Chamberlinius hualienensis
Procedure: The stability to temperature was measured by performing the reaction in a reaction mixture of pH 7.0 at the temperature range of 0 to 70° C. for 1 hour. In addition, the reaction was similarly performed except that the reaction temperature was adjusted to 20° C. and pH was changed in the range of 3 to 11. In the reaction, citrate-phosphate buffer was used when pH was 3 to 8, and glycine-NaOH buffer was used when pH was 8 to 11. The enzyme activity was measured according to the method described in Dadashipour et al. (2011). […] In addition, the relation between the reaction temperature and the remaining activity and the relation between the reaction pH and the remaining activity of both R-ChHNLs are respectively shown in FIG. 7(A) and FIG. 7(B).

[7] = system: Cc1ccc(C=O)cc1; test: purified protein, by the assay type; conditions: other: aldehydes other than benzaldehyde; condition similar to the above-described condition; pH 5.2
[8] = system: Cc1cccc(C=O)c1; test: purified protein, by the assay type; conditions: other: aldehydes other than benzaldehyde; condition similar to the above-described condition; pH 5.2
[9] = system: O=Cc1cccc2ccccc12; test: purified protein, by the assay type; conditions: other: aldehydes other than benzaldehyde; condition similar to the above-described condition; pH 5.2
[10] = aldehydes other than benzaldehyde, condition similar to the above-described condition
[11] = aldehydes other than benzaldehyde, relative to benzaldehyde at pH 5.2 and 22° C.
[12] = concentration not given (1 mM or 0.1 mM), pH 7.0, 20° C., 60 minutes
[13] = 100 μg/mL, pH 7.0, 20° C., 60 minutes
[14] = 1 mM, pH 7.0, 20° C., 60 minutes
[15] = 10 mM, pH 7.0, 20° C., 60 minutes
[16] = 1 mM, pH 7.0, 20° C., 60 minutes, read-out: Remaining activity
[17] = 10 mM, pH 7.0, 20° C., 60 minutes, read-out: Remaining activity

O=Cc1ccc(Br)cc1 [4-bromobenzaldehyde]
Km [1, 10]: 9.5 mM | Vmax [1, 10]: 19940 µmol/min/mg | kcat [1, 10]: 8259 s⁻¹ | max S.A. (specific activity) [1, 10]: 17375 U/mg | relative S.A. [1, 11]: 233.8

O=C(O)c1cc(SSc2ccc([N+](=O)[O-])c(C(=O)O)c2)ccc1[N+](=O)[O-] [dithionitrobenzoic acid]
Remaining activity [2, 12]: 97%

CC(=O)N[C@@H](CC(C)C)C(=O)N[C@@H](CC(C)C)C(=O)N[C@H](C=O)CCCNC(=N)N [leupeptin]
remaining activity at 100 µg/mL [2, 13]: 86%

O=S(=O)([O-])[O-].[Zn+2] [ZnSO4]
Remaining activity [2, 12]: 100%

NN [hydrazine]
Remaining activity [2, 12]: 100%

avidin: avidin, listed as biotin reagent
Remaining activity [2, 13]: 96%

N#CC(O)c1ccccc1 (racemic) [racemic mandelonitrile, mandelonitrile]
Km [3]: 5.5 mM | Vmax [3]: 2819 µmol/min/mg | kcat [3]: 1168 s⁻¹ | max S.A. (specific activity) [3]: 1896 U/mg

O=[N+]([O-])[O-].[Ag+] [AgNO3]
Remaining activity [2, 12]: 68%

O[C@@H](CS)[C@@H](O)CS [DTT]
Remaining activity [2, 12]: 100%

O=S(=O)(F)Cc1ccccc1 [phenylmethylsulfonyl fluoride (PMSF), phenylmethylsulfonyl fluoride]
Remaining activity [2, 14]: 91% | Remaining activity [2, 15]: 60%

Cc1ccc(C=O)c(C)c1 [2,4-dimethylbenzaldehyde]
Km [1, 10]: 0.94 mM | Vmax [1, 10]: 632.2 µmol/min/mg | kcat [1, 10]: 261.8 s⁻¹ | max S.A. (specific activity) [1, 10]: 654 U/mg | relative S.A. [1, 11]: 8.8

O=S(=O)([O-])[O-].[Mn+2] [MnSO4]
Remaining activity [2, 12]: 106%

COc1ccc(C=O)cc1 [4-methoxybenzaldehyde]
Km [1, 10]: 6.7 mM | Vmax [1, 10]: 7482 µmol/min/mg | kcat [1, 10]: 3099 s⁻¹ | max S.A. (specific activity) [1, 10]: 6849 U/mg | relative S.A. [1, 11]: 92.1

[Cl][Ni][Cl] [NiCl2]
Remaining activity [2, 12]: 93%

[Cl][Cd][Cl] [CdCl2]
Remaining activity [2, 12]: 99%

[Cl][Pb][Cl] [PbCl2]
Remaining activity ([2]; 0.1 mM, pH 7.0, 20° C., 60 minutes): 98% | Remaining activity [2, 14]: 77%

O=Cc1ccc2c(c1)OCO2 [piperonal]
Km [1, 10]: 5.6 mM | Vmax [1, 10]: 3006.6 µmol/min/mg | kcat [1, 10]: 1245.2 s⁻¹ | max S.A. (specific activity) [1, 10]: 2748 U/mg | relative S.A. [1, 11]: 37.0

oxidized glutathione
Remaining activity ([2]; 0.5 mM, pH 7.0, 20° C., 60 minutes): 95%

[Cl-].[Cl-].[Co+2] [CoCl2]
Remaining activity ([2]; pH 7): 95%

CCC1(CC)C(=O)NC(=O)NC1=O [barbital sodium]
Remaining activity [2, 12]: 93%

O=Cc1cccs1 [2-thiophenecarboxaldehyde]
Km [1, 10]: 18.7 mM | Vmax [1, 10]: 3522 µmol/min/mg | kcat [1, 10]: 1459 s⁻¹ | max S.A. (specific activity) [1, 10]: 2403 U/mg | relative S.A. [1, 11]: 32.3

NC(=O)CI [iodoacetamide]
remaining activity at 1000 µM [2, 16]: 75% | remaining activity at 10000 µM [2, 17]: 28% | inhibition of the activity of R-ChHNL ([2]; concentration increased to 10 mM): inhibit

CC(C)CC(=O)N[C@H](C(=O)N[C@H](C(=O)N[C@@H](CC(C)C)[C@@H](O)CC(=O)N[C@@H](C)C(=O)N[C@@H](CC(C)C)[C@@H](O)CC(=O)O)C(C)C)C(C)C [pepstatin A] (Isovaleryl-VV[Sta]A[Sta]-OH)
Remaining activity [2, 13]: 89%

O=Cc1ccccc1 [benzaldehyde]
activity of R-ChHNL on the carbonyl compound as substrate [4]: recognizes | max S.A. (specific activity) ([1]; pH5.2, 22° C.): 7433 U/mg | relative S.A. ([1]; pH5.2, 22° C., the reference case (100)): 100 | max S.A. (specific activity) ([1]; pH5.8, 35° C.): 17141 U/mg | relative S.A. ([1]; pH5.8, 35° C., relative to benzaldehyde at pH 5.2 and 22° C.): 230.6

N[C@@H](CCC(=O)N[C@@H](CS)C(=O)NCC(=O)O)C(=O)O [reduced glutathione]
Remaining activity ([2]; pH 7): 93%

[Cl][Fe]([Cl])[Cl] [FeCl3]
Remaining activity [2, 12]: 100%

O=S(=O)([O-])[O-].[Cu+2] [CuSO4]
Remaining activity [2, 12]: 100%

CCN1C(=O)C=CC1=O [N-ethylmaleimide]
Remaining activity [2, 12]: 100%

NC(=S)Nc1ccccc1 [phenylthiourea]
Remaining activity [2, 12]: 100%

O=C(O)CN(CCN(CC(=O)O)CC(=O)O)CC(=O)O [EDTA]
Remaining activity [2, 15]: 100%

COc1cccc(C=O)c1 [3-methoxybenzaldehyde]
Km [1, 10]: 5.7 mM | Vmax [1, 10]: 3228.2 µmol/min/mg | kcat [1, 10]: 1337 s⁻¹ | max S.A. (specific activity) [1, 10]: 3326 U/mg | relative S.A. [1, 11]: 44.7

Cc1ccc(C=O)cc1 [4-methylbenzaldehyde]
max S.A. (specific activity) [1, 10]: 11072 U/mg | relative S.A. [1, 11]: 149.0

OCCS [2-mercaptoethanol]
Remaining activity [2, 15]: 95%

[Cl][Hg][Cl] [HgCl2]
Remaining activity [2, 12]: 64%

O=C(O)CI [iodoacetic acid]
inhibition of the activity of R-ChHNL [2]: inhibit | remaining activity at 1000 µM ([2]; pH 7): 52% | remaining activity at 10000 µM ([2]; pH 7): 18%

Cc1ccccc1C=O [2-methylbenzaldehyde]
Km [1, 10]: 3.1 mM | Vmax [1, 10]: 2564.9 µmol/min/mg | kcat [1, 10]: 1062.3 s⁻¹ | max S.A. (specific activity) [1, 10]: 2395 U/mg | relative S.A. [1, 11]: 32.2

R-ChHNL: (R)-hydroxynitrile lyase purified from Chamberlinius hualienensis, amino acid sequence SEQ ID NO: 3, homodimer
activity in cyanohydrin synthesis direction relative to activity in cyanohydrin decomposition reaction [5]: 2.6 times | stability to pH (remaining activity) [6]: stability in broad pH range | pH of maximum activity ([6]; 20° C., pH 3 to 11, FIG. 5): 5.8 | activity after heating at 60° C. ([6]; 60° C. for 1 hour or longer, FIG. 6): maintained | activity maintained after heating at 75° C. ([6]; 75° C. for 1 hour): 20% | optimum temperature ([6]; FIG. 6): 35 ° | temperature at which high activity is exhibited ([6]; FIG. 6): ≤ 60 °C | activity at pH 4 as share of maximum activity value ([6]; pH 4, FIG. 5): about 10%

O=C(O)c1cc[c]([Hg][Cl])cc1 [p-chloromercuribenzoic acid]
Remaining activity [2, 12]: 100%

CCOC(=O)OC(=O)OCC [diethylpyrocarbonate]
remaining activity at 1000 µM [2, 16]: 100% | remaining activity at 10000 µM [2, 17]: 79%

Cc1cccc(C=O)c1 [3-methylbenzaldehyde]
max S.A. (specific activity) [1, 10]: 12657 U/mg | relative S.A. [1, 11]: 170.3

O=Cc1cccc2ccccc12 [1-naphthalenecarboxaldehyde]
max S.A. (specific activity) [1, 10]: 326 U/mg | relative S.A. [1, 11]: 4.4

O=C1NC(=O)C(c2ccccc2)(c2ccccc2)N1 [diphenylhydantoin]
Remaining activity [2, 12]: 100%

R-ChHNL (Chamberlinius hualienensis)
Km [7]: 5.0 mM | Vmax [7]: 11900 µmol/min/mg | kcat [7]: 4940 s⁻¹ | kcat/Km [7]: 989000 M⁻¹ s⁻¹ | Km [8]: 9.9 mM | Vmax [8]: 14000 µmol/min/mg | kcat [8]: 5800 s⁻¹ | kcat/Km [8]: 584000 M⁻¹ s⁻¹ | Km [9]: 0.65 mM | Vmax [9]: 313 µmol/min/mg | kcat [9]: 130 s⁻¹ | kcat/Km [9]: 199000 M⁻¹ s⁻¹

[Cl][Cr]([Cl])[Cl] [CrCl3]
Remaining activity [2, 12]: 88%
